The values below come from patent US9476099B2 (TRUSTEES OF DARTMOUTH COLLEGE, priority 2012, dated 2016).

This experiment concerns gene promoters in NT2/D1-R1 control and DNMT3B knockdown cells. Description: Genome-wide promoter methylation analysis, HumanMethylation27 BeadChip (Table 15). The conditions noted are these: three days low-dose decitabine, control NT2/D1-R1. It counts as cell-based, human. The protocol: DNA methylation analysis was performed in samples in triplicate using the […] […] assay with the HumanMethylation27 BeadChip ([…]) and the BeadChip was scanned on the BeadArray Reader ([…]), according to the manufacturer's instructions. Raw data was normalized and analyzed with Genome Studio software ([…]). The HumanMethylation27 BeadChip assays 27,578 CpGs covering more than 14,000 genes, mostly from promoter regions. […] Hierarchical clustering was performed as stated above. HumanMethylation27 BeadChip data and gene expression microarray data were submitted to NCBI GEO.

Regarding `Nc1ncn([C@H]2C[C@H](O)[C@@H](CO)O2)c(=O)n1` [decitabine, 5-aza-deoxycytidine], the “genes with altered promoter methylation” value was 388 genes. For the setting “of 388 genes”, the “genes with decreased levels of promoter methylation” value came to 305 genes.
